In patent US12622917B2, “High-activity Wnt pathway inhibitor compound” (ADLAI NORTYE BIOPHARMA CO., LTD., priority 2020, dated 2026):
pIC50: −log10 of the molar value.

Assays:
Hela = assay: Proliferation inhibition, non-Wnt mutant control cell line Hela; format: cell-based; settings: Homo sapiens, Wnt-independent control cell line, 96 hours, read-out: Antiproliferative IC50 Hela
Text: The cell lines used in the experiment are Colo205 and DU4475 cell lines whose Wnt pathway is continuously activated and whose proliferation is Wnt pathway-dependent; while the BELA and RKO cell lines, whose Wnt pathway is not activated under normal circumstances and the proliferation is independent of Wnt pathway, as control cell lines. It is Judged that the inhibitory effect of the compound of the present invention on Wnt-dependent proliferation is not caused by other non-specific toxicity.
Treat the Colo205, Du4475, HELA and RKO cell lines cultured in their respective mediums in the logarithmic growth phase, collect the cells and prepare a uniform cell suspension of known concentration, and then add it to the 96-well cell culture plate Cell suspension, so that each well contains 1000 cells. Put it into a 5% CO2 incubator and incubate at 37° C. for 20-24 h. On the second day, the fully dissolved, 3-fold serially diluted compound was added to each cell culture well, so that the final maximum concentration in the cell culture well was 20 uM, and the culture was continued for 96 hours. In this test, Promega's cell viability detection test is used for detection. The more the cells proliferate, the stronger the final signal intensity will be. The detection instrument is SpectraMax, full wavelength mode. The wells only added with DMSO were used as positive control wells, and the wells that were not inoculated with cells were used as negative control wells. […] The IC50 value of cell proliferation inhibition was used to evaluate the inhibitory effect of the compound on the Wnt pathway and the toxic effect on normal cells (Table 2).

[1] = system: Colo205-LUC-TCF/LEF M1 reporter cell line (Wnt pathway); assay: Colo205-LUC-TCF/LEF M1 reporter gene (luciferase) inhibition; format: cell-based; settings: 4 hours incubation, luciferase readout
Procedure, shortened: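 Luminescent readout of TCF/LEF-regulated luciferase after a 4 h, 37° C compound exposure in a stable Colo205 reporter clone (10,000 cells/well). Serial 3-fold dilutions started at 20 uM; IC50 derived using DMSO-treated cells and no-cell wells as controls.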

DU4475 = assay: Proliferation inhibition, Wnt mutant cell line DU4475; format: cell-based; settings: Homo sapiens, DU-4475; DU4475, Wnt pathway-dependent, 96 hours; read-out: Antiproliferative IC50 DU4475
Procedure, shortened: (§1)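 Log-phase cells are plated (1000 per well) and allowed to settle for 20-24 h at 37° C. Compound is added in 3-fold steps, highest final concentration 20 uM, and growth continues for 96 hours before a Promega viability measurement, from which the IC50 is obtained.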

Colo205 = assay: Proliferation inhibition, Wnt mutant cell line Colo205; format: cell-based; settings: Homo sapiens, COLO 205; Colo205, Wnt pathway-dependent, 96 hours; read-out: Antiproliferative IC50 Colo205
Procedure, shortened: as §1

RKO = assay: Proliferation inhibition, non-Wnt mutant control cell line RKO; format: cell-based; settings: Homo sapiens, Wnt-independent control cell line, 96 hours, read-out: Antiproliferative IC50 RKO
Procedure, shortened: as §1

HepG2 = assay: Proliferation inhibition, HepG2 cell line; format: cell-based; settings: Homo sapiens; HepG2 cells, 96 hours culture, cell viability detection; read-out: Antiproliferative IC50 HepG2
Procedure, shortened: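 Wnt-dependent proliferation in HepG2 and NCI-H929 cells, seeded at 4000 cells/well and pre-incubated 20-24 h at 37 °C. Cells were then exposed for 96 h to 3-fold serial dilutions (top final concentration 20 uM), and viability was read by signal intensity. IC50 was referenced to DMSO-only wells and cell-free wells.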

NCI-H929 = assay: Proliferation inhibition, NCI-H929 cell line; format: cell-based, human; settings: Homo sapiens; NCI-H929 cells, 96 hours culture, cell viability detection; read-out: Antiproliferative IC50 NCI-H929
Text: The cell lines used in the test are NCI-H929 and HepG2 cell lines whose Wnt pathway is continuously activated and whose proliferation is Wnt pathway-dependent; the inhibitory effect of the compound of the present invention on Wnt-dependent proliferation is judged.
Treat the NCI-H929 and HepG2 cell lines cultured in their respective mediums in the logarithmic growth phase, collect the cells and prepare a uniform cell suspension of known concentration, and then add the cell suspension to the 96-well cell culture plate solution so that each well contains 4000 cells. Put it into a […] incubator and incubate at 37° C. for 20-24 h. On the second day, the fully dissolved, 3-fold serially diluted compound was added to each cell culture well, so that the final maximum concentration in the cell culture well was 20 uM, and the culture was continued for 96 hours. In this test, Promega's cell viability detection test is used for detection. The more the cells proliferate, the stronger the final signal intensity will be. The detection instrument is SpectraMax, full wavelength mode. The wells only added with DMSO were used as positive control wells, and the wells that were not inoculated with cells were used as negative control wells. […] The IC50 value of cell proliferation inhibition was used to evaluate the inhibitory effect of the compound on the Wnt pathway and the toxic effect on normal cells (Table 3).

| SMILES | pIC50 (Hela) | pIC50 [1] | pIC50 (DU4475) | pIC50 (Colo205) | pIC50 (RKO) | pIC50 (HepG2) | pIC50 (NCI-H929) |
| --- | --- | --- | --- | --- | --- | --- | --- |
| CN1c2nc(NCc3cnn(CC(F)(F)F)c3)nc3ccn(c23)CC1(C)C [84 (W123)] | 5.32 | 7.77 | 7.44 | 7.39 | 5.26 | – | – |
| COC[C@H]1Cn2ccc3nc(NCc4ccc(C(F)(F)F)nc4)nc(c32)N1C [86 (W135)] | < 5.00 | 7.42 | – | 7.10 | < 5.00 | – | – |
| CN1c2nc(NCc3cnn(Cc4ccc(C(F)(F)F)nc4)c3)nc3ccn(c23)CC1CC(F)(F)F (stereo not drawn) [87 (W136)] | 5.53 | 8.15 | 8.27 | 8.17 | 5.40 | – | – |
| COC[C@H]1[C@@H](C)n2ccc3nc(NCc4cnn(Cc5ccc(C(F)(F)F)nc5)c4)nc(c32)N1C [88 (W140)] | < 5.00 | 7.66 | – | – | < 5.00 | – | – |
| C[C@H]1CN(C2CC2)c2nc(NCc3cnn(Cc4ccc(C(F)(F)F)nc4)c3)nc3ccn1c23 [90 (W152)] | < 5.00 | 7.62 | 7.43 | 7.38 | 5.25 | – | – |
| C[C@H]1C(=O)N2CCCc3nc(NCc4ccc(Cn5ccc(C(F)(F)F)n5)nc4)nc(c32)N1C [92 (W232)] | < 5.00 | – | 7.10 | 7.09 | < 5.00 | – | – |
| C[C@H]1C(=O)N2CCCc3nc(NCc4cnn(CCCC(F)(F)F)c4)nc(c32)N1C [93 (W223)] | < 5.00 | – | 7.10 | 7.05 | < 5.00 | – | – |
| C[C@H]1C(=O)N2CCCc3nc(NCc4ccc(Oc5cncc(C(F)(F)F)c5)nc4)nc(c32)N1C [99 (W193)] | < 5.00 | 7.57 | 7.68 | 7.92 | < 5.00 | – | – |
| C[C@H]1C(=O)N2CCCc3nc(NCc4ccc(Oc5ccnc(C(F)(F)F)c5)nc4)nc(c32)N1C [100 (W239)] | < 5.00 | 7.30 | 7.28 | 7.23 | < 5.00 | – | – |
| C[C@H]1C(=O)N2CCCc3nc(NCc4ccc(Oc5ccc(C(F)(F)F)nc5)cc4)nc(c32)N1C [101 (W213)] | 5.16 | 7.33 | 7.14 | 7.07 | 5.41 | – | – |
| [2H]C([2H])([2H])N1c2nc(NCc3ccc(Oc4cnc(C(F)(F)F)nc4)nc3)nc3c2N(CCC3)C(=O)[C@@H]1COC [178 (W333)] | – | 7.41 | 7.86 | 7.72 | < 5.00 | 7.64 | 7.22 |
| CN1c2nc(NCc3ccc(Oc4ccc(C(F)(F)F)nc4)nc3)nc3c2N(CCC3)C(=O)[C@@H]1CC(F)(F)F [190 (W317)] | – | 7.96 | > 9.30 | 8.10 | < 5.00 | 8.68 | 8.19 |
| [2H]C([2H])([2H])N1c2nc(NCc3ccc(Oc4cnc(C(F)(F)F)nc4)nc3)nc3c2N(CCC3)C(=O)[C@@H]1CC(F)(F)F [193 (W342)] | – | 8.40 | > 9.30 | 8.85 | < 5.00 | 8.92 | 7.62 |
| [2H]C([2H])([2H])N1c2nc(NCc3ccc(Oc4ccc(C(F)(F)F)nc4)nc3)nc3c2N(CCC3)C(=O)[C@@H]1CC(F)(F)F [196 (W344)] | – | 8.15 | > 9.30 | 8.85 | < 5.00 | 8.92 | 7.27 |
| CN1c2nc(NCc3ccc(Oc4cnc(C(F)(F)F)nc4)nc3)nc3c2N(CCC3)C(=O)[C@@H]1CC(F)(F)F [199 (W319)] | – | 8.05 | > 9.30 | 8.16 | < 5.00 | 8.70 | 7.55 |
